The target of assay [1] is T1, hTHEM4 (Homo sapiens, UniProt Q5T1C6). Kind of assay: product inhibition of thioesterase activity. The class given is biochemical.
Assay [2] concerns the target T1, hTHEM4. Kind of assay: substrate hydrolysed in the competitive inhibition assay. The assay is classed as biochemical.

Each structure is given as a SMILES string.

T1 sequence (Q5T1C6 37-240): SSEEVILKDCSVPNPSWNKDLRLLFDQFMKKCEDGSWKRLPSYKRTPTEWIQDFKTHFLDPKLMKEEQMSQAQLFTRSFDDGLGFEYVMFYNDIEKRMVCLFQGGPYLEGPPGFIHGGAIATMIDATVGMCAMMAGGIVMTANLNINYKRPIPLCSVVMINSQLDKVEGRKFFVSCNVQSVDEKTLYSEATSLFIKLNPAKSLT

On to `CC(C)(COP(=O)(O)OP(=O)(O)OC[C@H]1O[C@@H](n2cnc3c(N)ncnc32)[C@H](O)[C@@H]1OP(=O)(O)O)[C@@H](O)C(=O)NCCC(=O)NCCS` [CoA], for which the Ki on hTHEM4 [1] stood at 81 ± 1 µM.

Turning to `CCCCCCCCCC(=O)SCCNC(=O)CCNC(=O)[C@H](O)C(C)(C)COP(=O)(O)OP(=O)(O)OC[C@H]1O[C@@H](n2cnc3c(N)ncnc32)[C@H](O)[C@@H]1OP(=O)(O)O` [decanoyl-CoA], on hTHEM4 [2], the “substrate hydrolysed in the competitive inhibition assay” value is reported as “competitive inhibitor of hTHEM4-catalyzed decanoyl-CoA hydrolysis”.

The Ki is the equilibrium dissociation constant of an inhibitor or competing ligand from its target.

(Values after publication PMC4066673 (Biochemistry, 2012).)
